What all share (format): cell-based, mouse
One test relates to NIH3T3/v-Ras fibroblasts. The test can be described thus: Soft-agar colony formation assay. As to conditions: treated every 2-3 days until large colonies evident. The method, then:
(§1) FIG. 4. Abrogation of Stat3-dependent viral Src transformation. Viral Src-transformed fibroblasts (NIH3T3/v-Src) and their Ras-transformed counterparts (NIH3T3/v-Ras) were seeded in soft agar and growing cells were treated every 2-3 days with or without the indicated concentrations of PLATINUM-401 until large colonies were evident. Number of colonies of cells in soft agar were counted and expressed as % of control (non-treated) cells. Values are the mean and S.D. of the three independent assays.
(§2) Soft-agar colony formation assays—Colony formation assays were carried out in six-well dishes as previously described (Turkson et al., 1999). In brief, each well contained 1.5 ml of 1% agarose in DMEM as the bottom layer, and 1.5 ml of 0.5% agarose in DMEM containing 4000 or 6000 NIH3T3/v-Src or NIH3T3/v-Ras fibroblasts, respectively, as the top layer. Treatment with PLATINUM-401 was initiated 1 day after seeding cells by adding 75-100 μl of medium with or without compound, and repeated every three days, until large colonies were evident. Colonies were quantified by staining with 20 μl of 1 mg/ml iodonitrotetrazolium violet, incubating at 37° C. overnight and counting the next day.
(§3) PLATINUM-401 was next evaluated for effects on Stat3-mediated v-Src transformation (Turkson et al., 1998; Bromberg et al., 1998; Turkson et al., 1999).

Another test concerns NIH3T3/v-Src fibroblasts. The test is described as follows: Soft-agar colony formation assay. The note with it: treated every 2-3 days until large colonies evident. The method, then:
as §1, §2, §3

The subject of the next test is Cyclin D1. The test can be described thus: Cyclin D1 detection, in situ and Western blot. The note with it: NIH3T3/v-Src, 48 h. The method, then:
FIGS. 8A and 8B. Inhibition of Cyclin D1 and Bcl-xL induction by PLATINUM-401. Viral Src-transformed fibroblasts (NIH3T3/v-Src) and human breast cancer cell line MDA-MB-435 that contain constitutively-activated Stat3 were treated with or without platinum complex for 48 h. Cells were processed for immunohistochemistry, or cell lysates were prepared from cells and subjected to 5% PAGE and Western blot analysis, as indicated in “Materials and Methods.” (FIG. 8A) Detection of Cyclin D1; (FIG. 8B) Detection of Bcl-xL. Positions of Cyclin D1 and Bcl-xL proteins are shown. Beta-actin levels are shown for normalizing for equal total protein. Data are representative of 3 independent determinations.
Western blot—Whole-cell lysates were prepared in boiling sodium dodecyl sulfate (SDS) sample-loading buffer to extract total proteins from the cytoplasm and nucleus. Equivalent amounts of total cellular protein were electrophoresed on an SDS-10% polyacrylamide gel and transferred onto nitrocellulose membranes. Probing of nitrocellulose membranes with primary antibodies and detection of horseradish peroxidase-conjugated secondary antibodies by enhanced chemiluminescence (Amersham, Piscataway, N.J.) were performed as previously described (Garcia et al., 2001; Turkson et al., 2004b; Zhang et al., 2000). […]
(A western blot detects proteins with antibodies after separation by electrophoresis.)

Turning to `CC(O)CN1CCN(CC(C)O)CC1` (stereo not drawn) [PLATINUM-401], the “growth in soft agar” value was “only partially inhibits growth” with NIH3T3/v-Ras fibroblasts and “strongly suppresses growth” in the test on NIH3T3/v-Src fibroblasts. In addition, the “Cyclin D1 level” value with Cyclin D1 was “significantly diminished”.

For the origin of these results see patent US11571418B2, “Platinum compounds that inhibit constitutive STAT3 signaling and induce cell cycle arrest and apoptosis of malignant cells” (H. LEE MOFFITT CANCER CENTER AND RESEARCH INSTITUTE, INC., priority 2011, dated 2023).
